Experimental data taken from patent publication US7897582B2, “Oligonucleotide compositions and methods for the modulation of the expression of B7 protein” (Isis Pharmaceuticals, Inc., priority 2003, dated 2011).
Strand notation (5' to 3'): a small letter for the sugar, then the base; units joined by * are phosphorothioate-linked, units joined directly phosphodiester-linked; [ ] holds rarer units or linkages, { } end groups; capitals alone tell only the bases. e = 2'-O-(2-methoxyethyl) (MOE); [5mC] = 5-methylcytosine; d = 2'-deoxy (DNA)

Columns and labels:
human B7-2 = test: Cell surface expression of B7-2 in transfected COS-7 cells by flow cytometry; format: cell-based; details: for % B7-2 EXPRESSION: human B7 cell surface expression, Table 16; for % Surface Inhibition / % Surface Expression: COS-7 cells, B7-2 cell surface; for % Surface Expression: basal = 100%
Method: (§1) A T-175 flask was seeded at 75% confluency with COS-7 cells (ATCC accession No. CRL 1651). The plasmid pcB7-1 was introduced into cells by standard calcium phosphate transfection. Following a 4 hour transfection, the cells were trypsinized and seeded in 12-well dishes at 80% confluency. The cells were allowed to adhere to the plastic for 1 hour and were then washed with phosphate-buffered saline (PBS). OptiMEM™ (GIBCO-BRL, Gaithersburg, Md.) medium was added along with 15 μg/mL of Lipofectin™ (GIBCO-BRL, Gaithersburg, Md.) and oligonucleotide at the indicated concentrations. After four additional hours, the cells were washed with phosphate buffered saline (PBS) and incubated with fresh oligonucleotide at the same concentration in DMEM (Dulbecco et al., Virol., 1959, 8, 396; Smith et al., Virol., 1960, 12, 185) with 10% fetal calf sera (FCS).
(§2) In order to monitor the effects of oligonucleotides on cell surface expression of B7-1, treated COS-7 cells were harvested by brief trypsinization 24-48 hours after oligonucleotide treatment. The cells were washed with PBS, then resuspended in 100 μL of staining buffer (PBS, 0.2% BSA, 0.1% azide) with 5 μL conjugated anti-B7-1-antibody (i.e., anti-hCD80-FITC, Ancell, Bayport, Minn.; FITC: fluorescein isothiocyanate). The cells were stained for 30 minutes at 4° C., washed with PBS, resuspended in 300 μL containing 0.5% paraformaldehyde. Cells were harvested and the fluorescence profiles were determined using a flow cytometer.
In an initial screen, the ability of hB7-2 oligonucleotides to inhibit B7-2 expression was evaluated by measuring the cell surface expression of B7-2 in transfected COS-7 cells by flow cytometry. The methods used were similar to those given in Example 2, with the exceptions that (1) COS-7 cells were transfected with the plasmids pbcB7-2 or BBG-58, a human ICAM-1 (CD54) expression vector (R&D Systems, Minneapolis, Minn.) introduced into cells by standard calcium phosphate transfection, (2) the oligonucleotides used were those described in Table 2, and (3) a conjugated anti-B7-2 antibody (i.e., anti-hCD86-FITC or anti-CD86-PE, PharMingen, San Diego, Calif.; PE: phycoerythrin) was used during flow cytometry.
(§3) B7 antisense oligonucleotides were tested for their effect on cell surface expression of both B7-1 and B7-2. Cell surface expression was measured as described in Example 1. Experiments were done for both human B7 and mouse B7.
The oligonucleotides were screened as described in Example 2 except that the concentration of oligonucleotide was varied as shown in Table 19.

Human B7-1 mRNA = Human B7-1 mRNA expression in COS-7 cells, screened as in Example 4; format: cell-based
human B7-1 = test: Cell surface expression of B7-1 in pcB7-1-transfected COS-7 cells by flow cytometry; format: cell-based; details: for % Surface Inhibition / % Surface Expression: COS-7 cells, B7-1 cell surface; for % Surface Expression: basal = 100%; for % B7-1 EXPRESSION: human B7 cell surface expression, Table 16
Method: The ability of oligonucleotides to inhibit B7-1 expression was evaluated by measuring the cell surface expression of B7-1 in transfected COS-7 cells by flow cytometry.
as §1, §2, §3
The oligonucleotides were screened as described in Example 2 except that the concentration of oligonucleotide was varied as shown in Table 18.

hB7-2 mRNA = test: Ribonuclease protection assay of hB7-2 mRNA in transfected COS-7 cells; format: cell-based, human
Outline: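 COS-7 cells transfected with hB7-2 were treated with antisense oligonucleotides at varied concentrations, mismatch controls included; RNA taken 18 h after treatment. 5 μg total RNA hybridised overnight at 42° C with 32P antisense probe (B7-2 positions 1044-1391) or beta-actin probe, RNase A/T1 digested, gel-resolved and quantified by phosphorimaging.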

22316 (eG*e[5mC]*eT*e[5mC]*eA*d[5mC]*dG*dT*dA*dG*dA*dA*dG*dA*d[5mC]*e[5mC]*e[5mC]*eT*e[5mC]*e[5mC]; antisense) [compound 22316]
% B7-2 EXPRESSION (human B7-2): 100%
% mRNA EXPRESSION (Human B7-1 mRNA; 10 nM, COS-7, Table 8): 99%
% mRNA INHIBITION (Human B7-1 mRNA; 10 nM, COS-7, Table 8): 1%
% mRNA EXPRESSION (Human B7-1 mRNA; 30 nM, COS-7, Table 8): 73%
% mRNA INHIBITION (Human B7-1 mRNA; 30 nM, COS-7, Table 8): 27%
% mRNA EXPRESSION (Human B7-1 mRNA; 100 nM, COS-7, Table 8): 58%
% mRNA INHIBITION (Human B7-1 mRNA; 100 nM, COS-7, Table 8): 42%
% mRNA EXPRESSION (Human B7-1 mRNA; 300 nM, COS-7, Table 8): 33%
% mRNA INHIBITION (Human B7-1 mRNA; 300 nM, COS-7, Table 8): 67%
% mRNA EXPRESSION (Human B7-1 mRNA; human B7-1 mRNA, Table 7): 42%
% Surface Inhibition (human B7-1; dose 10 nM): 26%
% Surface Expression (human B7-1; dose 10 nM): 74%
% Surface Inhibition (human B7-1; dose 30 nM): 26%
% Surface Expression (human B7-1; dose 30 nM): 74%
% Surface Inhibition (human B7-1; dose 100 nM): 53%
% Surface Expression (human B7-1; dose 100 nM): 47%
% Surface Inhibition (human B7-1; dose 300 nM): 66%
% Surface Expression (human B7-1; dose 300 nM): 34%
% B7-1 EXPRESSION (human B7-1): 31%

22287 (eA*eG*eA*eA*eT*dG*dT*dT*dA*d[5mC]*dT*d[5mC]*dA*dG*dT*e[5mC]*e[5mC]*e[5mC]*eA*eT; antisense) [compound 22287]
% Surface Inhibition (human B7-2; dose 10 nM): 7%
% Surface Expression (human B7-2; dose 10 nM): 93%
% Surface Inhibition (human B7-2; dose 30 nM): 40%
% Surface Expression (human B7-2; dose 30 nM): 60%
% Surface Inhibition (human B7-2; dose 100 nM): 68%
% Surface Expression (human B7-2; dose 100 nM): 32%
% Surface Inhibition (human B7-2; dose 300 nM): 85%
% Surface Expression (human B7-2; dose 300 nM): 15%
% B7-2 EXPRESSION (human B7-2): 35%
% B7-1 EXPRESSION (human B7-1): 92%
% mRNA INHIBITION (hB7-2 mRNA; COS-7 cells, B7-2 mRNA, oligonucleotide dose 10 nM): 7%
% mRNA EXPRESSION (hB7-2 mRNA; COS-7 cells, B7-2 mRNA, oligonucleotide dose 10 nM, basal = 100%): 93%
% mRNA INHIBITION (hB7-2 mRNA; COS-7 cells, B7-2 mRNA, oligonucleotide dose 30 nM): 21%
% mRNA EXPRESSION (hB7-2 mRNA; COS-7 cells, B7-2 mRNA, oligonucleotide dose 30 nM, basal = 100%): 79%
% mRNA INHIBITION (hB7-2 mRNA; COS-7 cells, B7-2 mRNA, oligonucleotide dose 100 nM): 34%
% mRNA EXPRESSION (hB7-2 mRNA; COS-7 cells, B7-2 mRNA, oligonucleotide dose 100 nM, basal = 100%): 66%
% mRNA INHIBITION (hB7-2 mRNA; COS-7 cells, B7-2 mRNA, oligonucleotide dose 300 nM): 55%
% mRNA EXPRESSION (hB7-2 mRNA; COS-7 cells, B7-2 mRNA, oligonucleotide dose 300 nM, basal = 100%): 45%
% mRNA EXPRESSION (hB7-2 mRNA; human B7-2 mRNA, Table 12): 27%

22337 (antisense eT*eG*eA*e[5mC]*eG*dG*dA*dG*dG*d[5mC]*dT*dA*d[5mC]*d[5mC]*dT*eT*e[5mC]*eA*eG*eA) [compound 22337]
% B7-2 EXPRESSION (human B7-2): 101%
% mRNA EXPRESSION (Human B7-1 mRNA; human B7-1 mRNA, Table 7): 42%
% B7-1 EXPRESSION (human B7-1): 48%

ISIS 13800: phosphorothioate oligonucleotide to human B7-1 mRNA 0158-0177; 5′ UTR; SEQ ID NO: 25 (antisense dA*dC*dA*dC*dA*dC*dA*dG*dA*dG*dA*dT*dT*dG*dG*dA*dG*dG*dG*dT)
inhibition of B7-1 expression (human B7-1; COS-7 cells transiently expressing B7-1 cDNA, FIG. 1): essentially no inhibition
inhibition of cell surface expression of B7-1 at various concentrations (human B7-1; dose response, FIG. 2): essentially inactive

22317 (eT*e[5mC]*e[5mC]*e[5mC]*eA*dG*dG*dT*dG*d[5mC]*dA*dA*dA*dA*d[5mC]*eA*eG*eG*e[5mC]*eA; antisense) [compound 22317]
% B7-2 EXPRESSION (human B7-2): 91%
% mRNA EXPRESSION (Human B7-1 mRNA; human B7-1 mRNA, Table 7): 43%
% B7-1 EXPRESSION (human B7-1): 28%

22320 (eT*eT*eG*eA*eG*dG*dT*dA*dT*dG*dG*dA*d[5mC]*dA*d[5mC]*eT*eT*eG*eG*eA; antisense) [compound 22320]
% B7-2 EXPRESSION (human B7-2): 86%
% mRNA EXPRESSION (Human B7-1 mRNA; human B7-1 mRNA, Table 7): 45%
% B7-1 EXPRESSION (human B7-1): 37%
